The source of these data is patent US20260250318A1, “COMPOSITIONS AND METHODS FOR CROSSING THE BLOOD BRAIN BARRIER” (VOYAGER THERAPEUTICS, INC., priority 2022, published 2026).

For one assay, the system named is brain. The assay is described as follows: Matured TTM-001 and TTM-002 variants, NGS enrichment in mouse brain. Type of assay: in vivo, mice. Particulars: NGS fold-enrichment, brain of mice, relative to AAV9 control.
With KTVNGSGSPHSKSQNQLT, the “Fold Enrichment relative to AAV9, Brain (Mouse)” value is on record as 80.716 fold.

As for KTDRGSGSPHSKAQNQQT, the “Fold Enrichment relative to AAV9, Brain (Mouse)” value came out at 74.256 fold.

For the sequence KNCVGSGSPHSKAQNQQT, the “Fold Enrichment relative to AAV9, Brain (Mouse)” value turned out to be 96.175 fold.

With “KVINGSGSPHSKGQNQQT (peptide inserted in AAV capsid)”, the “Fold Enrichment relative to AAV9, Brain (Mouse)” value was determined as 68.532 fold.

Turning to KTVHGNGSPHSKAQNQQT, the “Fold Enrichment relative to AAV9, Brain (Mouse)” value is reported as 97.003 fold.

For the sequence KTVRDSGSPHSKAQNQQT, the “Fold Enrichment relative to AAV9, Brain (Mouse)” value is given as 142.600 fold.

Regarding KNHIGSGSPHSKAQNQQT, the “Fold Enrichment relative to AAV9, Brain (Mouse)” value is given as 70.356 fold.

Still in this assay, the particulars now being: NGS fold-enrichment, mouse brain, relative to AAV9 control.
For KTVNGSGSPHSKSQNQLT, the “Fold Enrichment relative to AAV9, Brain (Mouse)” value is reported as 80.716 fold.

In the case of KTVHGNGSPHSKAQNQQT, the “Fold Enrichment relative to AAV9, Brain (Mouse)” value came out at 97.003 fold.

The subject of another assay is brains, heart, liver, muscle, and DRG of the NHPs. In words: Maturation of TTM-001 and TTM-002 capsids, NGS enrichment in NHP tissues. Type of assay: in vivo. The settings on record: NGS fold-enrichment of RNA, NHP brain, relative to AAV9 control. The method in brief: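 Variants carry mutations within and flanking the loop IV peptide insert: positions 450–466 were triplet-randomized, while positions 449–466 received low-frequency point mutations. The combined pool went into two NHPs, and each peptide was scored by NGS enrichment ratio against AAV9.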
For KTVNGSGSPHSKSQNQLT, the “Fold Enrichment relative to AAV9, Brain (NHP)” value turned out to be 101.327 fold.

Regarding KTVHGNGSPHSKAQNQQT, the “Fold Enrichment relative to AAV9, Brain (NHP)” value was found to be 90.073 fold.

Still in this assay, the particulars now being: NGS fold-enrichment, DRG of NHPs, relative to AAV9 control.
As for KTVNGSGSPHSKSQNQLT, the “Fold Enrichment relative to AAV9, DRG (NHP)” value is given as 0.000 fold.

With KTDRGSGSPHSKAQNQQT, the “Fold Enrichment relative to AAV9, DRG (NHP)” value came to 0.000 fold.

As to KNCVGSGSPHSKAQNQQT, the “Fold Enrichment relative to AAV9, DRG (NHP)” value is recorded as 0.000 fold.

For the sequence “KVINGSGSPHSKGQNQQT (peptide inserted in AAV capsid)”, the “Fold Enrichment relative to AAV9, DRG (NHP)” value stood at 0.000 fold.

Consider KTVHGNGSPHSKAQNQQT, for which the “Fold Enrichment relative to AAV9, DRG (NHP)” value was 0.000 fold.

For KTVRDSGSPHSKAQNQQT, the “Fold Enrichment relative to AAV9, DRG (NHP)” value amounted to 0.000 fold.

KNHIGSGSPHSKAQNQQT: the “Fold Enrichment relative to AAV9, DRG (NHP)” value is recorded as 0.000 fold.

Still in this assay, the particulars now being: NGS fold-enrichment, NHP DRG, relative to AAV9 control.
On to KTVNGSGSPHSKSQNQLT, for which the “Fold Enrichment relative to AAV9, DRG (NHP)” value worked out at 0.000 fold.

KTVHGNGSPHSKAQNQQT: the “Fold Enrichment relative to AAV9, DRG (NHP)” value was determined as 0.000 fold.

Still in this assay, the particulars now being: NGS fold-enrichment, NHP heart, relative to AAV9 control.
Turning to KTVNGSGSPHSKSQNQLT, the “Fold Enrichment relative to AAV9, Heart (NHP)” value was found to be 0.035 fold.

As to KTVHGNGSPHSKAQNQQT, the “Fold Enrichment relative to AAV9, Heart (NHP)” value amounted to 0.000 fold.

The same assay, now with this note: NGS fold-enrichment, NHP liver DNA, relative to AAV9 control.
Take KTVNGSGSPHSKSQNQLT: the “Fold Enrichment relative to AAV9, Liver DNA (NHP)” value is listed as 0.025 fold.

Consider KTVHGNGSPHSKAQNQQT, for which the “Fold Enrichment relative to AAV9, Liver DNA (NHP)” value was 0.304 fold.

The assay is the same for the next values; noted with them: NGS fold-enrichment, NHP liver RNA, relative to AAV9 control.
For the sequence KTVNGSGSPHSKSQNQLT, the “Fold Enrichment relative to AAV9, Liver RNA (NHP)” value was 0.000 fold.

As to KTVHGNGSPHSKAQNQQT, the “Fold Enrichment relative to AAV9, Liver RNA (NHP)” value is on record as 0.000 fold.

The same assay, now with this note: NGS fold-enrichment, NHP muscle, relative to AAV9 control.
For KTVNGSGSPHSKSQNQLT, the “Fold Enrichment relative to AAV9, Muscle (NHP)” value is 0.000 fold.

KTVHGNGSPHSKAQNQQT: the “Fold Enrichment relative to AAV9, Muscle (NHP)” value is listed as 0.000 fold.

The same assay, now with this note: NGS fold-enrichment, RNA, brain of NHPs, relative to AAV9 control.
Consider KTVNGSGSPHSKSQNQLT, for which the “Fold Enrichment relative to AAV9, Brain (NHP)” value turned out to be 101.327 fold.

On to KTDRGSGSPHSKAQNQQT, for which the “Fold Enrichment relative to AAV9, Brain (NHP)” value is 61.419 fold.

In the case of KNCVGSGSPHSKAQNQQT, the “Fold Enrichment relative to AAV9, Brain (NHP)” value is on record as 60.535 fold.

As to “KVINGSGSPHSKGQNQQT (peptide inserted in AAV capsid)”, the “Fold Enrichment relative to AAV9, Brain (NHP)” value worked out at 60.001 fold.

For KTVHGNGSPHSKAQNQQT, the “Fold Enrichment relative to AAV9, Brain (NHP)” value was 90.073 fold.

With KTVRDSGSPHSKAQNQQT, the “Fold Enrichment relative to AAV9, Brain (NHP)” value worked out at 66.056 fold.

On to KNHIGSGSPHSKAQNQQT, for which the “Fold Enrichment relative to AAV9, Brain (NHP)” value amounted to 64.535 fold.

Still in this assay, the particulars now being: NGS fold-enrichment, heart of NHPs, relative to AAV9 control.
KTVNGSGSPHSKSQNQLT: the “Fold Enrichment relative to AAV9, Heart (NHP)” value is listed as 0.035 fold.

With KTDRGSGSPHSKAQNQQT, the “Fold Enrichment relative to AAV9, Heart (NHP)” value was 0.004 fold.

Regarding KNCVGSGSPHSKAQNQQT, the “Fold Enrichment relative to AAV9, Heart (NHP)” value is on record as 0.000 fold.

For “KVINGSGSPHSKGQNQQT (peptide inserted in AAV capsid)”, the “Fold Enrichment relative to AAV9, Heart (NHP)” value is given as 0.000 fold.

As for KTVHGNGSPHSKAQNQQT, the “Fold Enrichment relative to AAV9, Heart (NHP)” value is 0.000 fold.

In the case of KTVRDSGSPHSKAQNQQT, the “Fold Enrichment relative to AAV9, Heart (NHP)” value turned out to be 0.025 fold.

In the case of KNHIGSGSPHSKAQNQQT, the “Fold Enrichment relative to AAV9, Heart (NHP)” value amounted to 0.000 fold.

Staying with this assay, now noted: NGS fold-enrichment, liver DNA of NHPs, relative to AAV9 control.
Turning to KTVNGSGSPHSKSQNQLT, the “Fold Enrichment relative to AAV9, Liver DNA (NHP)” value was 0.025 fold.

As for KTDRGSGSPHSKAQNQQT, the “Fold Enrichment relative to AAV9, Liver DNA (NHP)” value was 0.316 fold.

KNCVGSGSPHSKAQNQQT: the “Fold Enrichment relative to AAV9, Liver DNA (NHP)” value worked out at 0.282 fold.

On to “KVINGSGSPHSKGQNQQT (peptide inserted in AAV capsid)”, for which the “Fold Enrichment relative to AAV9, Liver DNA (NHP)” value is reported as 0.157 fold.

Take KTVHGNGSPHSKAQNQQT: the “Fold Enrichment relative to AAV9, Liver DNA (NHP)” value came to 0.304 fold.

For the sequence KTVRDSGSPHSKAQNQQT, the “Fold Enrichment relative to AAV9, Liver DNA (NHP)” value is reported as 0.461 fold.

As for KNHIGSGSPHSKAQNQQT, the “Fold Enrichment relative to AAV9, Liver DNA (NHP)” value is 0.187 fold.

The assay is the same for the next values; noted with them: NGS fold-enrichment, liver RNA of NHPs, relative to AAV9 control.
Take KTVNGSGSPHSKSQNQLT: the “Fold Enrichment relative to AAV9, Liver RNA (NHP)” value is listed as 0.000 fold.

Regarding KTDRGSGSPHSKAQNQQT, the “Fold Enrichment relative to AAV9, Liver RNA (NHP)” value turned out to be 0.211 fold.

On to KNCVGSGSPHSKAQNQQT, for which the “Fold Enrichment relative to AAV9, Liver RNA (NHP)” value was found to be 0.018 fold.

Take “KVINGSGSPHSKGQNQQT (peptide inserted in AAV capsid)”: the “Fold Enrichment relative to AAV9, Liver RNA (NHP)” value is on record as 0.264 fold.

Turning to KTVHGNGSPHSKAQNQQT, the “Fold Enrichment relative to AAV9, Liver RNA (NHP)” value came to 0.000 fold.

Consider KTVRDSGSPHSKAQNQQT, for which the “Fold Enrichment relative to AAV9, Liver RNA (NHP)” value amounted to 0.129 fold.

As for KNHIGSGSPHSKAQNQQT, the “Fold Enrichment relative to AAV9, Liver RNA (NHP)” value was 1.253 fold.

The same assay, now with this note: NGS fold-enrichment, muscle of NHPs, relative to AAV9 control.
As to KTVNGSGSPHSKSQNQLT, the “Fold Enrichment relative to AAV9, Muscle (NHP)” value was 0.000 fold.

For the sequence KTDRGSGSPHSKAQNQQT, the “Fold Enrichment relative to AAV9, Muscle (NHP)” value was 0.000 fold.

Take KNCVGSGSPHSKAQNQQT: the “Fold Enrichment relative to AAV9, Muscle (NHP)” value is recorded as 0.000 fold.

As for “KVINGSGSPHSKGQNQQT (peptide inserted in AAV capsid)”, the “Fold Enrichment relative to AAV9, Muscle (NHP)” value worked out at 0.031 fold.

On to KTVHGNGSPHSKAQNQQT, for which the “Fold Enrichment relative to AAV9, Muscle (NHP)” value is listed as 0.000 fold.

As for KTVRDSGSPHSKAQNQQT, the “Fold Enrichment relative to AAV9, Muscle (NHP)” value is recorded as 0.000 fold.

For KNHIGSGSPHSKAQNQQT, the “Fold Enrichment relative to AAV9, Muscle (NHP)” value is 0.000 fold.
